In the SangsterLogP compilation one finds logP data, which are given here for 23 compounds.

One data set in a line: method code SF-GLC, from DOI: 10.1021/jm00326a002, PMID: 14332653.
In the case of `CC(=O)CCC1CC1`, the logP is 1.5.

A short description of another data set: method code SF-AS, from DOI: 10.1021/jm00326a002, PMID: 14332653.
For `c1ccc2ncccc2c1`, the log partition coefficient (logP) was 2.03. In the case of `C#Cc1ccccc1`, the lipophilicity (logP) is 2.53.

Regarding `N#CCCc1ccccc1`, the logP was found to be 1.72.

Compound `BrCCc1ccccc1` gave a logP of 3.09. On the same count and under the same terms, as for `CC(=O)Cc1ccccc1`, the figure is 1.44; as for `COC(=O)CCCc1ccccc1`, 2.77. On to `COC(=O)CCc1ccccc1`, for which the logP is 2.32. `BrCCCc1ccccc1`: the lipophilicity (logP) turned out to be 3.72.

Take `C=CCCC(C)=O`: the logP is 1.02.

`COC(=O)Cc1ccccc1`: the lipophilicity (logP) came to 1.83.

In turn, `CCCCSC#N` registered a logP of 2.03. The same measure, in the same setting: under `FCCCc1ccccc1` stands 2.95. With `NC(=O)CCCc1ccccc1`, the log partition coefficient (logP) amounted to 1.41. Still for that read-out and setting: under `ClCCc1ccccc1` stands 2.95; under `COCCCc1ccccc1`, 2.7. The same measure, in the same setting: under `NC(=O)CCc1ccccc1` stands 0.91; under `CC(=O)CCCc1ccccc1`, 2.42. The same measure, in the same setting: under `CN(C)CCCc1ccccc1` stands 2.73; under `N#CCCCc1ccccc1`, 2.21. Consider `CC(=O)OCCc1ccccc1`, for which the logP was determined as 2.3.

A further data set in a line: method code SF, from DOI: 10.1021/jm00326a002, PMID: 14332653.
Regarding `COC(=O)CCC(C)=O`, the log partition coefficient (logP) is -0.13. In turn, `COC(=O)CCCCC(C)=O` registered a logP of 0.55.

In general, logP refers to a log measure of how a compound divides between an organic and an aqueous phase.
